pIC50: −log10 of the molar value.
Molecular target: T1, Type-1 angiotensin II receptor A (Rattus norvegicus, UniProt P25095)
T1 sequence (P25095 whole entry): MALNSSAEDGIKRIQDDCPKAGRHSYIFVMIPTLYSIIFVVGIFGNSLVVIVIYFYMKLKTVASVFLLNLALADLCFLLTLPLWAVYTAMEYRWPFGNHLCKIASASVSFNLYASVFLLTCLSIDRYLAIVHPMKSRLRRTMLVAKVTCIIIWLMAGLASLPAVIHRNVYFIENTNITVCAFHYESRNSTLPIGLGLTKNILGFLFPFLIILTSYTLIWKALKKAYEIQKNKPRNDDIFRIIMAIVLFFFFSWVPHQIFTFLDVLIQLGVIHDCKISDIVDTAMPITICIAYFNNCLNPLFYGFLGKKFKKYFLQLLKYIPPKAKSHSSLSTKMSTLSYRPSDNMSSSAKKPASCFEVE
Assay: Displacement of [125I]Sar1,Ile8-Ang2 from AT1 receptor in Wistar rat hepatic membrane

Compound: CCc1c2[nH]cccc-2c(=O)n1Cc1ccc(-c2ccccc2-c2nnn[nH]2)cc1
- pIC50: < 5.00

Compound: O=c1c2ccc[nH]c-2cn1Cc1ccc(-c2ccccc2-c2nnn[nH]2)cc1
- pIC50: < 5.00

Source: BindingDB's records for doi:10.1021/jm7011563 (University of Siena, 2008)
